Reference: the NIST ThermoML archive (doi:10.1021/je100734t)
Where “and” joins values, the source holds several entries; their conditions need not be identical. Equal values may be shown once.

Columns and labels:
[1] = 101 kPa, Liquid; for speed of sound: Pulse-echo method
[2] = xn = mol fraction of the nth substance listed; conditions: 101 kPa, Liquid; for speed of sound: Pulse-echo method

Cc1ccccc1C [1,2-dimethylbenzene]
[1]
Conditions | mass density [kg/m3] | speed of sound [m/s]
293.15 K | 879.49 | 1369
303.15 K | 871.14 | 1328
313.15 K | 862.59 | 1289

Cc1ccccc1C [1,2-dimethylbenzene] + CCCCCCCCCCO
[2], x1 = 1
Conditions | mass density [kg/m3] | speed of sound [m/s]
293.15 K | 879.49 | 1369
303.15 K | 871.14 | 1328
313.15 K | 862.59 | 1289

Cc1ccccc1C [1,2-dimethylbenzene] + CCCCCCCCCO
[2], x1 = 1
Conditions | mass density [kg/m3] | speed of sound [m/s]
293.15 K | 879.49 | 1369
303.15 K | 871.14 | 1328
313.15 K | 862.59 | 1289

Cc1cccc(C)c1 [1,3-dimethylbenzene]
[1]
Conditions | mass density [kg/m3] | speed of sound
293.15 K | 864.18 | 1341 m/s and 1340 m/s
303.15 K | 855.56 | 1300 m/s
313.15 K | 846.9 | 1259 m/s

Cc1cccc(C)c1 [1,3-dimethylbenzene] + CCCCCCCCCO
[2], x1 = 1
Conditions | mass density [kg/m3] | speed of sound [m/s]
293.15 K | 864.18 | 1341
303.15 K | 855.56 | 1300
313.15 K | 846.9 | 1259

Cc1ccc(C)cc1 [1,4-dimethylbenzene]
[1]
Conditions | mass density [kg/m3] | speed of sound [m/s]
293.15 K | 860.96 | 1330
303.15 K | 852.25 | 1289
313.15 K | 843.51 | 1249

Cc1ccc(C)cc1 [1,4-dimethylbenzene] + CCCCCCCCCCO
[2], x1 = 1
Conditions | mass density [kg/m3] | speed of sound [m/s]
293.15 K | 860.96 | 1330
303.15 K | 852.25 | 1289
313.15 K | 843.51 | 1249

Cc1ccc(C)cc1 [1,4-dimethylbenzene] + CCCCCCCCCO
[2], x1 = 1
Conditions | mass density [kg/m3] | speed of sound [m/s]
293.15 K | 860.96 | 1330
303.15 K | 852.25 | 1289
313.15 K | 843.51 | 1249

CCCCCCCCCCO [decan-1-ol]
[1]
Conditions | mass density [kg/m3] | speed of sound [m/s]
293.15 K | 829.98 | 1396
303.15 K | 823.1 | 1362
313.15 K | 816.27 | 1329

CCCCCCCCCCO [decan-1-ol] + Cc1cccc(C)c1
[2], x2 = 0
Conditions | mass density [kg/m3] | speed of sound [m/s]
293.15 K | 829.98 | 1396
303.15 K | 823.1 | 1362
313.15 K | 816.27 | 1329

CCc1ccccc1 [ethylbenzene]
[1]
Conditions | mass density [kg/m3] | speed of sound [m/s]
293.15 K | 867.14 | 1340
303.15 K | 858.37 | 1298
313.15 K | 849.55 | 1257

CCc1ccccc1 [ethylbenzene] + CCCCCCCCCCO
[2], x1 = 1
Conditions | mass density [kg/m3] | speed of sound [m/s]
293.15 K | 867.14 | 1340
303.15 K | 858.37 | 1298
313.15 K | 849.55 | 1257

CCc1ccccc1 [ethylbenzene] + CCCCCCCCCO
[2], x1 = 1
Conditions | mass density [kg/m3] | speed of sound [m/s]
293.15 K | 867.14 | 1340
303.15 K | 858.37 | 1298
313.15 K | 849.55 | 1257

CCCCCCCCCO [nonan-1-ol]
[1]
Conditions | mass density [kg/m3] | speed of sound [m/s]
293.15 K | 827.7 | 1381
303.15 K | 820.82 | 1347
313.15 K | 813.88 | 1314
